# Test results taken from ChEMBL document CHEMBL4184313, “Enantiomeric neolignans from Picrasma quassioides exhibit distinctive cytotoxicity on hepatic carcinoma cells through ROS generation and apoptosis induction” (Bioorg Med Chem Lett, 2018).
# pIC50: −log10 of the molar value. Calls of active or inactive are those of the source. No cut-off for these calls is given here.
# What was measured:
# [1] = tested on: HepG2; assay: Cytotoxicity against human HepG2 cells assessed as decrease in cell viability after 48 hrs by MTT assay; type: functional, cell-based; settings: HepG2, 48 h
# [2] = tested on: Hep 3B2; assay: Cytotoxicity against human Hep3B cells assessed as decrease in cell viability after 48 hrs by MTT assay; type: functional, cell-based
# [3] = tested on: HepG2; assay: Induction of intracellular ROS accumulation in human HepG2 cells at 50 uM after 48 hrs by DCFH probe based flow cytometry; type: functional, cell-based
# [4] = tested on: HepG2; assay: Cell cycle arrest in human HepG2 cells assessed as 4N DNA content at 50 uM after 48 hrs by PI staining based flow cytometry (reference value: 15.2%); type: functional
# [5] = tested on: HepG2; assay: Cell cycle arrest in human HepG2 cells assessed as accumulation at S phase at 50 uM after 48 hrs by PI staining based flow cytometry (reference value: 7%); type: functional
# [6] = tested on: HepG2; assay: Cell cycle arrest in human HepG2 cells assessed as <2N DNA content at 50 uM after 48 hrs by PI staining based flow cytometry (reference value: 4.18%); type: functional
# [7] = tested on: HepG2; assay: Induction of apoptosis in human HepG2 cells assessed as viable cells at 50 uM after 48 hrs by Annexin V-FITC/PI staining based flow cytometry (reference value: 95.7%); type: functional; settings: HepG2, 48 h, read-out: Activity
# [8] = tested on: HepG2; assay: Induction of apoptosis in human HepG2 cells assessed as necrotic cells at 50 uM after 48 hrs by Annexin V-FITC/PI staining based flow cytometry (reference value: 0.62%); type: functional
# [9] = tested on: HepG2; assay: Induction of apoptosis in human HepG2 cells assessed as nuclear condensation at 50 uM after 48 hrs by […] staining based fluorescence microscopy; type: functional, cell-based
# [10] = tested on: HepG2; assay: Induction of apoptosis in human HepG2 cells assessed as apoptotic bodies at 50 uM after 48 hrs by phase contrast microscopy; type: functional, cell-based
# [11] = tested on: HepG2; assay: Cell cycle arrest in human HepG2 cells assessed as 2N DNA content at 50 uM after 48 hrs by PI staining based flow cytometry (reference value: 70.6%); type: functional
# [12] = tested on: HepG2; assay: Induction of apoptosis in human HepG2 cells assessed as early apoptotic cells at 50 uM after 48 hrs by Annexin V-FITC/PI staining based flow cytometry (reference value: 1.61%); type: functional
# [13] = tested on: HepG2; assay: Induction of apoptosis in human HepG2 cells assessed as rounding of cells at 50 uM after 48 hrs by phase contrast microscopy; type: functional, cell-based
# [14] = tested on: HepG2; assay: Induction of apoptosis in human HepG2 cells assessed as late apoptotic cells at 50 uM after 48 hrs by Annexin V-FITC/PI staining based flow cytometry (reference value: 2.03%); type: functional
# [15] = tested on: HepG2; assay: Induction of apoptosis in human HepG2 cells assessed as shrinkage of cells at 50 uM after 48 hrs by phase contrast microscopy; type: functional, cell-based
# [16] = tested on: HepG2; assay: Cell cycle arrest in human HepG2 cells assessed as >4N DNA content at 50 uM after 48 hrs by PI staining based flow cytometry (reference value: 2.04%); type: functional
smiles,measurement,setting,value
COc1cc([C@@H]2Oc3c(OC)cc(/C=C/C=O)cc3[C@H]2CO)ccc1O,pIC50,[1],4.41
same,pIC50,[2],4.50
COc1cc(C2Oc3c(OC)cc(/C=C/CO)cc3C2CO)ccc1O (racemic),pIC50,[1],4.10
same,pIC50,[2],4.18
COc1cc([C@H]2Oc3c(OC)cc(/C=C/C=O)cc3[C@@H]2CO)ccc1O,pIC50,[1],4.42
same,pIC50,[2],4.65
COc1cc([C@@H]2Oc3c(OC)cc(/C=C/C=O)cc3[C@H]2CO)cc(OC)c1O,pIC50,[1],3.98
same,pIC50,[2],4.22
COc1cc([C@H]2Oc3c(OC)cc(/C=C/CO)cc3[C@@H]2CO)ccc1O,Activity,[3],Active
same,Activity,[4],19.1%
same,Activity,[5],6.2%
same,pIC50,[1],4.45
same,Activity,[6],3.86%
same,viability at 50 µM,[7],86%
same,Activity,[8],1.71%
same,Activity,[9],Active
same,Activity,[10],Active
same,Activity,[11],70.2%
same,Activity,[12],8.39%
same,Activity,[13],Active
same,Activity,[14],3.87%
same,pIC50,[2],4.28
same,Activity,[15],Active
same,Activity,[16],0.6%
COc1cc(C2Oc3c(OC)cc(/C=C/C=O)cc3C2CO)ccc1O (racemic),pIC50,[1],4.44
same,pIC50,[2],4.53
COc1cc([C@@H]2Oc3c(OC)cc(/C=C/CO)cc3[C@H]2CO)ccc1O [DEHYDROCONIFERYL ALCOHOL],Activity,[3],inactive
same,Activity,[4],16.8%
same,Activity,[5],8.2%
same,pIC50,[1],3.98
same,Activity,[6],3.76%
same,viability at 50 µM,[7],94.4%
same,Activity,[8],0.74%
same,Activity,[9],Active
same,Activity,[10],Active
same,Activity,[11],70.1%
same,Activity,[12],2.5%
same,Activity,[13],Active
same,Activity,[14],2.37%
same,pIC50,[2],4.26
same,Activity,[15],Active
same,Activity,[16],1.14%
COc1cc(C2Oc3c(OC)cc(/C=C/C=O)cc3C2CO)cc(OC)c1O (racemic),pIC50,[1],4.09
same,pIC50,[2],4.11
COc1cc([C@H]2Oc3c(OC)cc(/C=C/C=O)cc3[C@@H]2CO)cc(OC)c1O,pIC50,[1],4.05
same,pIC50,[2],4.14
